Results as given in patent US20070010669A1, “Novel class of cytodifferentiating agents and histone deacetylase inhibitors, and methods of use thereof” (priority 1999, published 2007).
Where two headings read alike, the source gives them in different places.

Key:
[1] = target: affinity purified human epitope-tagged (Flag) HDAC1 (Homo sapiens, UniProt Q13547); assay: Histone Deacetylase (HDAC) enzymatic activity, [3H]acetyl-labeled histone substrate; format: biochemical; set-up: Flag
Experimental: Substrate ([^3H]acetyl-labeled murine erythroleukemia cell-derived histone) was added and the samples were incubated for 20 min at 37° C. in a total volume of 30 μl. The reaction were then stopped and released acetate was extracted and the amount of radioactivity released determined by scintillation counting.
Substrate ([^3H]acetyl-labelled murine erythroleukemia cell-derived histone) was added and the samples were incubated for 20 min at 37° C. in a total volume of 30 μl. The reactions were then stopped and relaesed acetate was extracted and the amount of radioactivity released determined by scintillation counting.
Substrate ([^3H]acetyl-labelled murine erythroleukemia cell-derived histone) was added and the samples were incubated for 20 min at 37° C. in a total volume of 30 μl. The reactions were then stopped and released acetate was extracted and the amount of radioactivity released determined by scintillation counting.
The effect was assayed by incubating the enzyme preparation in the absence of substrate on ice for 20 minutes with the indicated amounts of compound. Substrate([^3H]acetyl-labeled murine erythroleukemia cell-derived histones) was added and the samples were incubated for 20 minutes at 37° C. in a total volume of 30 μl. The reactions were then stopped and released acetate was extracted and the amount of radioactivity released determined by scintillation counting.

[2] = tested on: Murine erythroleukemia (MEL) cells; assay: MEL cell differentiation assay (benzidine assay; cell growth by Coulter Counter); format: cell-based; conditions: for MEL Diff % B+ / MEL Diff Cells/ml × 10^−5: Table 2; for concentration able to induce MEL cell differentiation: FIGS. 1, 3, 4, 6; for concentration able to induce MEL cell differentiation / MEL Differentiation Opt.: 5-day culture; for MEL Differentiation % B+ / MEL Differentiation Opt.: Table 1; for MEL Differentiation % B+: benzidine-positive cells at Opt. concentration; for MEL Differentiation Opt.: optimal concentration; for MEL Diff Cells/ml × 10^−5: cell growth
Experimental: The MEL cell differentiation assay was used to assess the ability of Compound 1 to induce terminal differentiation. MEL cells (logarithmically dividing) were cultured with the indicated concentrations of Compound 1. Following a 5-day culture period, cell growth was determined using a Coulter Counter and differentiation was determined microscopically using the benzidine assay to determine hemoglobin protein accumulation on a per cell basis.
The MEL cell differentiation assay was used to assess the ability of Compound 2 to induce terminal differentiation. MEL cells (logarithmically dividing) were cultured with the indicated concentrations of Compound 2. Following a 5-day culture period differentiation was determined microscopically using the benzidine assay to determine hemoglobin protein accumulation on a per cell basis.
The MEL cell differentiation assay was used to assess the ability of Compound 3 to induce terminal differentiation. MEL cells (logarithmically dividing) were cultured with the indicated concentrations of Compound 3. Following a 5-day culture period differentiation was determined microsdopically using the benzidine assay to determine hemoglobin protein accumulation on a per cell basis.
The MEL cell differentiation assay was used to assess the ability of Compound 4 to induce terminal differentiation. MEL cells (logarithmically dividing) were cultured with the indicated concentrations of Compound 4. Following a 5-day culture period differentiation was determined microscopically using the benzidine assay to determine hemoglobin protein accumulation on a per cell basis.
All the compounds which were prepared were tested. […] Table 2 is compiled from experiments similar to the experiments described in Examples 7-10 above.

[3] = Table 2, unit nM, read-out: HDAC inh ID50
[4] = FIGS. 2, 5, 7, read-out: ID50 of HDAC1 enzymatic activity
[5] = Table 2, unit column μm, read-out: HDAC inh ID50
[6] = Table 2, unit μM, read-out: HDAC inh ID50

Sequence of affinity purified human epitope-tagged (Flag) HDAC1 (Q13547 whole entry): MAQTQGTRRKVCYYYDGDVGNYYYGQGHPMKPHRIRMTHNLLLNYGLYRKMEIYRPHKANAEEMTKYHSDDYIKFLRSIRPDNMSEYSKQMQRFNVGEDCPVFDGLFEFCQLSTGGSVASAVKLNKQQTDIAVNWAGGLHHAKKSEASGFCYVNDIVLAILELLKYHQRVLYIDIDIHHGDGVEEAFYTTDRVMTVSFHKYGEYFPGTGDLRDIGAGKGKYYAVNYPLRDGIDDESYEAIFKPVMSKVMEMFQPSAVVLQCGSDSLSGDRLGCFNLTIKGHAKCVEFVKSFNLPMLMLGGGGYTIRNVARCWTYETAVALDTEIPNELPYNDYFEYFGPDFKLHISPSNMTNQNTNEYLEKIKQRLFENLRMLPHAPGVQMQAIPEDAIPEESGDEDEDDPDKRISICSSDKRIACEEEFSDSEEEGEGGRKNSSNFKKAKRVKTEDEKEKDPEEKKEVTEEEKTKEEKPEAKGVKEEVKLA

SMILES	IC50 [1, 3] [nM]	MEL Diff % B+ [2] [%]	MEL Diff Cells/ml × 10^−5 [2]	also measured
O=C(CCCCC[C@H](NC(=O)c1cccnc1)C(=O)Nc1ccccc1)NO (stereo in doubt) [Compound 2, N-Nicotinoyl-(L)-α-aminosuberoylanilide-ω-hydroxamic acid]	50	27		
O=C(CCCCC[C@H](NC(=O)c1ccccc1)C(=O)Nc1ccccc1)NO [Compound 1, N-Benzoyl-(L)-α-aminosuberoylanilide-ω-hydroxamic acid]		44	9 Cells/ml × 10^−5	IC50 [1, 4]: 1 nM; concentration able to induce MEL cell differentiation [2]: 200 nM; MEL Differentiation % B+ [2]: 44%; MEL Differentiation Opt. [2]: 200 nM
O=C(CCCCC[C@H](NC(=O)c1cccnc1)C(=O)Nc1ccccc1)NO [Compound 2, N-Nicotinoyl-(L)-α-aminosuberoylanilide-ω-hydroxamic acid]				concentration able to induce MEL cell differentiation [2]: 800 nM; MEL Differentiation % B+ [2]: 27%; MEL Differentiation Opt. [2]: 800 nM
O=C(CCCCCC(NC(=O)OCc1ccccc1)C(=O)Nc1ccccc1)NO (stereo not drawn) [Compound 3, N-benzyloxycarbonyl-(L)-α-aminosuberateanilide-ω-hydroxamic acid]	100	16	3.3 Cells/ml × 10^−5	
O=C(CCCCC[C@H](NC(=O)OCc1ccccc1)C(=O)Nc1ccccc1)NO [Compound 3, N-benzyloxycarbonyl-(L)-α-aminosuberateanilide-ω-hydroxamic acid]				IC50 [1, 4]: 100 nM; concentration able to induce MEL cell differentiation [2]: 400 nM; MEL Differentiation % B+ [2]: 16%; MEL Differentiation Opt. [2]: 400 nM
O=C(/C=C/c1cccc(C(C(=O)Nc2ccccc2)C(=O)Nc2ccccc2)c1)NO [Compound 77, 3-(malonyldi(phenylamide)) cinnamyl hydroxamic acid]		9	9.0 Cells/ml × 10^−5	
O=C(O)CCCCC[C@@H](NC(=O)c1ccccc1)C(=O)Nc1ccccc1 [Compound 656]		0		IC50 [1, 5]: > 100000 nM
O=C(O)CCCCC[C@@H](NC(=O)c1cccnc1)C(=O)Nc1ccccc1 [Compound 657]		0		IC50 [1, 5]: > 100000 nM
O=C(O)CCCCCC(NC(=O)OCc1ccccc1)C(=O)Nc1cccc2cccnc12 (centres unmarked) [Compound 659]		0		IC50 [1, 6]: 10000 nM
O=C(CCCCC[C@@H](NC(=O)c1ccccc1)C(=O)Nc1cccc2cccnc12)NO [Compound 661]	20	7		
CS(=O)(=O)NCCCCCC(=O)Nc1ccccc1 [Compound 662]		0		IC50 [1, 6]: > 100000 nM
O=C(CCCCC[C@@H](NC(=O)c1ccccc1)NC(=O)C1CCCCC1)NO [Compound 663]	100	43	7 Cells/ml × 10^−5	
O=C(CCCCC[C@H](NC(=O)c1cnc2ccccc2c1)C(=O)Nc1ccccc1)NO [Compound 664]	50	33	22 Cells/ml × 10^−5	
O=C(CCCCC[C@H](NC(=O)c1cccs1)C(=O)Nc1ccccc1)NO [Compound 665]	50	24	30 Cells/ml × 10^−5	
O=C(CCCCCC(C(=O)Nc1ccccc1)C(=O)Nc1ccccc1)NO [Compound 666]	100	31	28 Cells/ml × 10^−5	
O=C(CCCCCC(C(=O)Nc1cccc2cccnc12)C(=O)Nc1cccc2cccnc12)NO [Compound 667]	50	27	2 Cells/ml × 10^−5	
O=C(CCCCCCC(=O)Nc1cccc2cccnc12)NO [Compound 668]	100	11	4.7 Cells/ml × 10^−5	
O=C(Nc1ccccc1)C(CCCCCC(=O)C(F)(F)F)C(=O)Nc1ccccc1 [Compound 669]		11	16.0 Cells/ml × 10^−5	IC50 [1, 6]: 10000 nM

SMILES	IC50 [1, 3] [nM]	MEL Diff % B+ [2] [%]	MEL Diff Cells/ml × 10^−5 [2]	also measured
O=C(CCCCCCC(=O)C(F)(F)F)Nc1ccccc1 [Compound 670]			13.0 Cells/ml × 10^−5	
CN(C)c1cccc2cc(S(=O)(=O)NCCCCCC(=O)NO)ccc12 [Compound 671]	200	35	12.5 Cells/ml × 10^−5	
COP(=O)(NCCCCCC(=O)Nc1ccccc1)OC [Compound 673]		0	No inh	
OC(c1ncc[nH]1)(c1ncc[nH]1)c1nc(CCCCCc2cnc(C(O)(c3ncc[nH]3)c3ncc[nH]3)[nH]2)c[nH]1 [Compound 674]		0	Dead at 25 μM	IC50 [1, 6]: 50000 nM
CC(=O)SCCCCCC(=O)Nc1ccccc1 [Compound 675]		0	No inh	IC50 [1, 6]: > 100000 nM
O=C(CCCCCBr)Nc1ccccc1 [Compound 676]		0	No inh	
O=C(CCCCCC(C(=O)Nc1cnc2ccccc2c1)C(=O)Nc1cnc2ccccc2c1)NO [Compound 677]	5	23	4.5 Cells/ml × 10^−5	
NS(=O)(=O)CCCCCC(=O)Nc1ccccc1 [Compound 678]		0	No inh	IC50 [1, 6]: > 100000 nM
O=C(CCCCCn1ccnc1)Nc1ccccc1 [Compound 679]		0	No inh	IC50 [1, 6]: > 100000 nM
CC(=O)SCCCCCCCC(=O)Nc1ccccc1 [Compound 680]				IC50 [1, 6]: > 100000 nM
O=C(CCCCCC(C(=O)Nc1cccc2cccnc12)(C(=O)Nc1cccc2cccnc12)c1ccccc1)NO [Compound 681]	200	3	2.5 Cells/ml × 10^−5	
O=C(CCCCCC(C(=O)Nc1ccccc1)(C(=O)Nc1ccccc1)c1ccccc1)NO [Compound 682]	150	8	1.1 Cells/ml × 10^−5	
O=C(CCCCCCn1ccnc1)Nc1ccccc1 [Compound 684]		0	No inh	
O=C(CCCCCC(CCCCCC(=O)NO)(C(=O)Nc1cccc2cccnc12)C(=O)Nc1cccc2cccnc12)NO [Compound 685]	150	20	1.0 Cells/ml × 10^−5	
NS(=O)(=O)CCCCCCC(=O)Nc1ccccc1 [Compound 686]		0	No inh	
O=C(/C=C/c1cccc(C(=O)Nc2ccccc2)c1)NO [Compound 687]		0	No inh	IC50 [1, 6]: 200000 nM
O=C(CCCCCCC(=O)Nc1cc[nH]n1)Nc1ccccc1 [Compound 688]		0	No inh	IC50 [1, 6]: > 100000 nM
O=C(CCCCCC(C(=O)Nc1ccc2ncccc2c1)C(=O)Nc1ccc2ncccc2c1)NO [Compound 692]		27		
